We go through two compounds from the NIST ThermoML archive (doi:10.1021/je7001539).

The vapor or sublimation pressure is the equilibrium pressure above the liquid or solid.

The conditions of the series: Liquid.

± gives the expanded uncertainty stated by the source.

Turning to `CC(C)C` [2-methylpropane], the “vapor or sublimation pressure” value runs as follows: (243.15 K) 46.2 ± 3.2 kPa; (253.15 K) 72 ± 3.5 kPa; (263.15 K) 107.9 ± 3.9 kPa; (272.15 K) 150.9 ± 4.6 kPa; (283.15 K) 220.1 ± 5.9 kPa; (293.15 K) 301.8 ± 7.6 kPa. Further, the “vapor or sublimation pressure” value (303.15 K) stood at 404.3 ± 10 kPa, the “vapor or sublimation pressure” value (313.15 K) is recorded as 530.8 ± 13 kPa, the “vapor or sublimation pressure” value (323.15 K) is on record as 684.3 ± 17 kPa and the “vapor or sublimation pressure” value (333.15 K) is on record as 868.3 ± 22 kPa.

Turning to `FC(F)C(F)(F)F` [pentafluoroethane], the “vapor or sublimation pressure” value runs as follows: (243.15 K) 228.5 ± 6.1 kPa; (253.15 K) 337.9 ± 8.5 kPa; (263.15 K) 483.1 ± 12 kPa; (272.15 K) 650.1 ± 16 kPa; (283.15 K) 908.8 ± 23 kPa; (293.15 K) 1204.5 ± 30 kPa. Also, the “vapor or sublimation pressure” value (303.15 K) is reported as 1566.8 ± 39 kPa, the “vapor or sublimation pressure” value (313.15 K) is 2005.6 ± 50 kPa, the “vapor or sublimation pressure” value (323.15 K) is given as 2533.2 ± 63 kPa and the “vapor or sublimation pressure” value (333.15 K) came to 3167.4 ± 79 kPa.
